“Also recorded” adds a separate entry of the source.
Legend:
[1] = target: rTRPV1 (Rattus norvegicus, UniProt O35433); format: cell-based
[2] = target: cTRPV1-A578E (Gallus gallus, UniProt Q8QFN9, A578E); assay: cell-based; design: species or system chicken (Gallus gallus)
[3] = system: 3XHA-cTRPV1-A578K; format: cell-based, chicken (Gallus gallus)
[4] = target: cTRPV1 (Gallus gallus, UniProt Q8QFN9); assay: cell-based; format: cell-based, chicken (Gallus gallus)
[5] = system: Ch15 rat-chicken TRPV1 chimera (rat C-terminus, N687-K838); format: cell-based
[6] = system: Ch6 rat-chicken TRPV1 chimera (rat N-terminus, M1-R428); format: cell-based
[7] = system: 3XHA-cTRPV1-A578P; format: cell-based, chicken (Gallus gallus)
[8] = system: 3XHA-cTRPV1-A578Q; format: cell-based, chicken (Gallus gallus)
[9] = target: T1, rTRPV1-E570K (Rattus norvegicus, UniProt O35433, E570K); format: cell-based
T1 construct: expressed in transfected cells; host or cells: HEK293T

[10] = target: T2, rTRPV1-E570Q (Rattus norvegicus, UniProt O35433, E570Q); format: cell-based
T2 construct: expressed in transfected cells; host or cells: HEK293T

[11] = target: T3, rTRPV1-E570P (Rattus norvegicus, UniProt O35433, E570P); format: cell-based
T3 construct: expressed in transfected cells; host or cells: HEK293T

[12] = target: T4, rTRPV1-E570A (Rattus norvegicus, UniProt O35433, E570A); format: cell-based
T4 construct: expressed in transfected cells; host or cells: HEK293T
T4 sequence (O35433 whole entry E570A): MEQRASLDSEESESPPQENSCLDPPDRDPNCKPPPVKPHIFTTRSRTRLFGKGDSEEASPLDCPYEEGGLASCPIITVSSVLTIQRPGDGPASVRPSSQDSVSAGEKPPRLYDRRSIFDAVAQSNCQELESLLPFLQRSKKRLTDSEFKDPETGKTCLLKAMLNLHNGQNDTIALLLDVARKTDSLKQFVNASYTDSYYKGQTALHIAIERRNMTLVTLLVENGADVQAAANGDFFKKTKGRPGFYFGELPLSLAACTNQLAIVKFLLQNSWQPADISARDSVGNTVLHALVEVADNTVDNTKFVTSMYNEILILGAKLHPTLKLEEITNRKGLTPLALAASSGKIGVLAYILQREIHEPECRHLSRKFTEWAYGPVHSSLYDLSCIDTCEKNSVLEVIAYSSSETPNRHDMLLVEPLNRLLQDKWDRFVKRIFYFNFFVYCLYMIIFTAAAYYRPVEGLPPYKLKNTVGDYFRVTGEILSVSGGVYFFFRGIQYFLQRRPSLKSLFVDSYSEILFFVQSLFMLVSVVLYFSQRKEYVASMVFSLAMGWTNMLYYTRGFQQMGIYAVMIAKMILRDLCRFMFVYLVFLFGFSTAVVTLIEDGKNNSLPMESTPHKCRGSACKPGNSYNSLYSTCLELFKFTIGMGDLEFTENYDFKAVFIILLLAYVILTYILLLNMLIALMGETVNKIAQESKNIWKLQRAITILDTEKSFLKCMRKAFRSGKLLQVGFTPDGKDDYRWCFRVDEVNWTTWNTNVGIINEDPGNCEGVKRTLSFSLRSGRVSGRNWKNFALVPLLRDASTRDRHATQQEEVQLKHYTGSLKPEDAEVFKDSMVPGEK

cTRPV1, sequence (Q8QFN9 1-843): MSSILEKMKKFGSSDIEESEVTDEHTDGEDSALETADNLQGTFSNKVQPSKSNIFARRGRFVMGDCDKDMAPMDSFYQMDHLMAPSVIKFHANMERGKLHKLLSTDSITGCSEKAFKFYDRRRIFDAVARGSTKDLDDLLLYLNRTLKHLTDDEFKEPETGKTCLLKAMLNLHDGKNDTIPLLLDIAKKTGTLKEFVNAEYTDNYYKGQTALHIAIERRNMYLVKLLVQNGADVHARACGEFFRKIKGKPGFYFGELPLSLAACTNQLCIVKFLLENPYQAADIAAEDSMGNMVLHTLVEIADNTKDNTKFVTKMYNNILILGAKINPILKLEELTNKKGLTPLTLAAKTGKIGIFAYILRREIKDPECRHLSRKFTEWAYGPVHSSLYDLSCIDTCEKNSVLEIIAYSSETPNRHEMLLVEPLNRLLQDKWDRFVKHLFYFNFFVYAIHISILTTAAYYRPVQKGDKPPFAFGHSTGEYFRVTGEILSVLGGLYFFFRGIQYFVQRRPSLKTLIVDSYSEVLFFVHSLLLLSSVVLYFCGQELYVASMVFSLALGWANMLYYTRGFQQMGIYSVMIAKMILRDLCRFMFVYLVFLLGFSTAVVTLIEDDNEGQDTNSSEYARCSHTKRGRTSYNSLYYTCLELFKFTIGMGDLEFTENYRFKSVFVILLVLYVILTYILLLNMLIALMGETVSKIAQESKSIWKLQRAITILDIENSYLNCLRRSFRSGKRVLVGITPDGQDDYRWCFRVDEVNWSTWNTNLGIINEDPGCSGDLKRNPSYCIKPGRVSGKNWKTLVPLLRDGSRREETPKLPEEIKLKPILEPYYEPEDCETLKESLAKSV
rTRPV1, sequence (O35433 whole entry): as the sequence (O35433 whole entry E570A) above, with A570E counted along it
cTRPV1-A578E, sequence (Q8QFN9 1-843 A578E): as the sequence (Q8QFN9 1-843) above, with A578E counted along it
T1 sequence (O35433 whole entry E570K): as the sequence (O35433 whole entry E570A) above, with A570K counted along it
T2 sequence (O35433 whole entry E570Q): as the sequence (O35433 whole entry E570A) above, with A570Q counted along it
T3 sequence (O35433 whole entry E570P): as the sequence (O35433 whole entry E570A) above, with A570P counted along it

Question: With `COc1cc(CNC(=O)CCCC/C=C/C(C)C)ccc1OCCN` [Cap-EA, O-aminoethyl capsaicin] as the molecule, how does the capsaicin analog-induced activation [1] read?
Answer: strong response

Question: And the capsaicin analog-induced activation [2]?
Answer: successfully activated; also recorded: strongly activated

Question: What about the capsaicin analog-induced activation [3] of the same molecule?
Answer: partially activated

Question: For `CNCCOc1ccc(CNC(=O)CCCC/C=C/C(C)C)cc1OC` [Cap-EMA, O-(N-methylaminoethyl) capsaicin], which capsaicin analog-induced activation [1] is on record?
Answer: strong response

Question: And the capsaicin analog-induced activation [3]?
Answer: slightly activated

Question: What does the source list for `COc1cc(CNC(=O)CCCC/C=C/C(C)C)ccc1O` [capsaicin]?
Answer: channel activation (Ca2+ signal) [1]: activated rTRPV1; EC50 [4]: > 30 µM; channel activation (Ca2+ signal) [4]: the response was relatively weak for cTRPV1; also recorded: limited response; capsaicin sensitivity of chimera [5]: no capsaicin sensitivity; capsaicin sensitivity of chimera vs cTRPV1 [6]: limited improvement in capsaicin sensitivity; EC50 [2]: 7.2 ± 9.4 µM; increase of response to 100 μM capsaicin, A578E mutant vs wildtype cTRPV1 [2]: 5 fold; vanilloid responsiveness (30 μM capsaicin-induced activation normalized to cocktail-induced maximum channel opening) [2]: greatest capsaicin sensitivity; vanilloid responsiveness (30 μM capsaicin-induced activation normalized to cocktail-induced maximum channel opening) [3]: greatest capsaicin sensitivity; vanilloid responsiveness (30 μM capsaicin-induced activation normalized to cocktail-induced maximum channel opening) [7]: greatest capsaicin sensitivity; vanilloid responsiveness (30 μM capsaicin-induced activation normalized to cocktail-induced maximum channel opening) [8]: greatest capsaicin sensitivity; responsiveness to 300 nM capsaicin normalized to protein expression level [9]: exhibited responsiveness to 300 nM capsaicin, albeit much weaker than wildtype; responsiveness to 300 nM capsaicin normalized to protein expression level [10]: exhibited responsiveness to 300 nM capsaicin, albeit much weaker than wildtype; responsiveness to 300 nM capsaicin normalized to protein expression level [11]: reduced capsaicin sensitivity; capsaicin-induced responses vs wildtype rTRPV1 [12]: drastically decreased

Question: How did the “Zingerone-induced activity relative to capsaicin” value [1] turn out when `COc1cc(CCC(C)=O)ccc1O` [zingerone] was run?
Answer: 35.9 ± 5.0%

Question: What about the zingerone-induced activation [1] of the same molecule?
Answer: activated rTRPV1

Question: And the zingerone-induced activation [2]?
Answer: did not activate

Question: And the zingerone-induced activation [3]?
Answer: did not activate

Question: What about the zingerone-induced activation [7] of the same molecule?
Answer: did not activate

Question: What about the zingerone-induced activation [8] of the same molecule?
Answer: did not activate

Question: What does the source list for ruthenium red?
Answer: block of cocktail-elicited extracellular Ca2+ entry [1]: could be blocked; block of cocktail-elicited ion flow [4]: sufficient to block most ions

From PMC7229161 (Scientific Reports, 2020)
